Experimental data reported in US11612661B2 (priority 2019, dated 2023).
Numbered stars: 1 amine (or outer) side, 2 acyl side, 3 side chain; on linkers, the order of the positions; unused ones are H or OH. Bridge positions count the residues as written; N and C are the ends. Square brackets hold non-standard residues; d marks the D form. Triazole bridges read from a SMILES are 1,4-linked. Peptide text beside a SMILES is read from it. Gly(αS-SH) = O=C([C@@H](N[*:1])S[*:3])[*:2]; Tyr(3-I) = N[C@@H](Cc1ccc(O)c(I)c1)C(=O)O; Orn(N3) = [N-]=[N+]=NCCC[C@H](N)C(=O)O; Cit = NC(=O)NCCC[C@H](N)C(=O)O; Pra = C#CC[C@H](N)C(=O)O

How the values were obtained:
rat α9α10 nAChR = rat α9α10 nAChR (Rattus norvegicus, UniProt P43144+Q9JLB5); assay: cell-based; format: cell-based; conditions: α9α10 nAChR IC50 (nM) Rat
rat α9α10 nAChR, sequence (P43144 26-479 limits assumed): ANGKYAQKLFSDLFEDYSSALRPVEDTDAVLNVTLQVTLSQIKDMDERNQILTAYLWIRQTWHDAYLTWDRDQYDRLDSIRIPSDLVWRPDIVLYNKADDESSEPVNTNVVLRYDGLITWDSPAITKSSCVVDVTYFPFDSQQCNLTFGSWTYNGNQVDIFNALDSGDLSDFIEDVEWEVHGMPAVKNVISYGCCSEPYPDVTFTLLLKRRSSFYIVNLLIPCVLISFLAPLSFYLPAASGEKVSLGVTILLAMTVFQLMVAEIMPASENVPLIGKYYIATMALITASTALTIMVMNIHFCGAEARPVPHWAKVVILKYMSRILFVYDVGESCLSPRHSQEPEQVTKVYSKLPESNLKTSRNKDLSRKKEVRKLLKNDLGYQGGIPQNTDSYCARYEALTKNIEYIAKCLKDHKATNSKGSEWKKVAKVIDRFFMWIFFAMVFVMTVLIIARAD
rat α9α10 nAChR, sequence (Q9JLB5 25-447 limits assumed): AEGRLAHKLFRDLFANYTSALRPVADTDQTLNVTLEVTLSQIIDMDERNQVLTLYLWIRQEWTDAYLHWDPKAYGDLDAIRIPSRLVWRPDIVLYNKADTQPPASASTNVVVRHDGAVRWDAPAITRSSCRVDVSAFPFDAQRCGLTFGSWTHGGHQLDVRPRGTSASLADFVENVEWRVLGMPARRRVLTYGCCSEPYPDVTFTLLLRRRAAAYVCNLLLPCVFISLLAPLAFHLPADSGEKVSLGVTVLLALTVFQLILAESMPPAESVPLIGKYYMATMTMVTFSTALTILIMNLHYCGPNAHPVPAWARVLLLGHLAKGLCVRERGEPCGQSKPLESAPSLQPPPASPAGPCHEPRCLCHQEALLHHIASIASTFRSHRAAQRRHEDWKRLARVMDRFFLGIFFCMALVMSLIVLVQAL

human α9α10 nAChR = human α9α10 nAChR (Homo sapiens, UniProt Q9GZZ6+Q9UGM1); assay: cell-based; format: cell-based
human α9α10 nAChR, sequence (Q9UGM1 26-479 limits assumed): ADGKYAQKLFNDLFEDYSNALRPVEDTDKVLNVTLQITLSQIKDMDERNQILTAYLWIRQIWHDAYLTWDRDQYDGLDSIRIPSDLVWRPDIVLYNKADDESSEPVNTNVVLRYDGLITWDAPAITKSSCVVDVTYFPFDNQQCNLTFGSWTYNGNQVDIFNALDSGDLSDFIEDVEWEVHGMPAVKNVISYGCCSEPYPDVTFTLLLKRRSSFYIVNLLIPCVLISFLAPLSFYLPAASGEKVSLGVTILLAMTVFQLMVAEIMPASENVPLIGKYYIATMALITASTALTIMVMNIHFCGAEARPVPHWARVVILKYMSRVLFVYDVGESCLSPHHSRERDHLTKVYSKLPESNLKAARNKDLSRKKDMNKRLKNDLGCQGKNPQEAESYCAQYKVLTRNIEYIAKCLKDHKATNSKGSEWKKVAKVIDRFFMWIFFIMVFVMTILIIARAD
human α9α10 nAChR, sequence (Q9GZZ6 25-450 limits assumed): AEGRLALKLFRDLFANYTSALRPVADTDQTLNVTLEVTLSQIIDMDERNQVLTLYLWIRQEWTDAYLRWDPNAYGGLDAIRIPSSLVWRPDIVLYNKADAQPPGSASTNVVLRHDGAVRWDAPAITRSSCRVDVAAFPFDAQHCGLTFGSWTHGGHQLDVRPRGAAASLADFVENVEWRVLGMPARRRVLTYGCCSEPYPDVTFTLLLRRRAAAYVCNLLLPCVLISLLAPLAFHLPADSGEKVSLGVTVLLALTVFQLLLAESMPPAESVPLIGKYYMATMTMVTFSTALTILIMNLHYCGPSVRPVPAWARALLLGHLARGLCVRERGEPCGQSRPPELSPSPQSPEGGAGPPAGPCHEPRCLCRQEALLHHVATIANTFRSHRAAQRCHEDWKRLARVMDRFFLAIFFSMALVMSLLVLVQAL

α7 nAChR = α7 nAChR (Homo sapiens, UniProt P36544); conditions: 10 μM; read-out: Partial inhibition of the α7 nAChR
α7 nAChR, sequence (P36544 23-502 limits assumed): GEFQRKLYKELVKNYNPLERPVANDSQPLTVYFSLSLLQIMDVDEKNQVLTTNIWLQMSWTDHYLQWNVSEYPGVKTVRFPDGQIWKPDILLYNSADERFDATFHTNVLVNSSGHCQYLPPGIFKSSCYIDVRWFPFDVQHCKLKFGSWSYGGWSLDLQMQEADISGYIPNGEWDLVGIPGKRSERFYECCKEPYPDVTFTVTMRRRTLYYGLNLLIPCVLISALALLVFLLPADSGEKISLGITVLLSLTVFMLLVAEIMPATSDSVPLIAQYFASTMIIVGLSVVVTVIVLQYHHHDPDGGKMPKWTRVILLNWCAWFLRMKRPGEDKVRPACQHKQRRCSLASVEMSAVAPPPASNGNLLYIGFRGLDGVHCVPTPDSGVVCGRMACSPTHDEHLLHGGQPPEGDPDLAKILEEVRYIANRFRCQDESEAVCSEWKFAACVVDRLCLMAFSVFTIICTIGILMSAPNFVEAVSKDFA

[1] = tested on: chronic constriction injury (CCI) model; parameters: species or system Sprague Dawley rats; conditions: rat, in vivo
[2] = tested on: 88 receptors, transporters, enzymes and kinases; conditions: 10 μM

In the case of `C[C@@H](O)[C@@H]1NC(=O)[C@@H]2Cc3cn(nn3)CCC[C@@H](C(=O)N[C@@H](Cc3ccc(O)cc3)C(N)=O)NC(=O)[C@H](CCC(N)=O)NC(=O)[C@H](Cc3ccc(O)c(I)c3)NC(=O)[C@H](CCCNC(N)=O)NC(=O)[C@H](CSSC[C@H](NC(=O)CN)C(=O)N2)NC(=O)[C@H](CCCNC(=N)N)NC(=O)[C@@H]2CCCN2C(=O)[C@H](CC(=O)O)NC1=O` [Ib′, L-tyrosinamide, glycyl-L-cysteinyl-L-alanyl-L-threonyl-L-α-aspartyl-L-prolyl-L-arginyl-L-cysteinyl-N5-(aminocarbonyl)-L-ornithyl-L-3-iodotyrosyl-L-glutaminyl-L-norvalyl-cyclic (2→8)-disulfide-cyclic 3^3,12^5-(1H-1,2,3-triazole-4,1-diyl)] (H-GC[Pra]TDPRC[Cit][Tyr(3-I)]Q[Orn(N3)]Y-NH2; disulfide 2-8; triazole 3-12), the IC50 (rat α9α10 nAChR) is reported as 2.3 ± 0.5 nM, the IC50 (human α9α10 nAChR) is reported as 48 ± 9 nM and the inhibition at 10 µM (α7 nAChR) is reported as 56%. For the same molecule, the “Paw withdrawal thresholds relative to vehicle-treated control animals” value [1] was “statistically significant improvement in paw withdrawal thresholds” and the “Off-target effects in panel of 88 receptors, transporters, enzymes and kinases” value [2] was “no off-target effects”.

Work on `C[C@@H](O)[C@@H]1NC(=O)[C@H]2NC(=O)[C@@H](NC(=O)CN)CCCn3cc(nn3)C[C@H](NC(=O)[C@H](CCCNC(=N)N)NC(=O)[C@@H]3CCCN3C(=O)[C@H](CC(=O)O)NC1=O)C(=O)N[C@@H](CCCNC(N)=O)C(=O)N[C@@H](Cc1ccc(O)c(I)c1)C(=O)N[C@@H](CCC(N)=O)C(=O)N[C@H](C(=O)N[C@@H](Cc1ccc(O)cc1)C(N)=O)CSS2` [Id, L-tyrosinamide, glycyl-L-norvalyl-L-cysteinyl-L-threonyl-L-α-aspartyl-L-prolyl-L-arginyl-L-alanyl-N5-(aminocarbonyl)-L-ornithyl-L-3-iodotyrosyl-L-glutaminyl-L-cysteinyl-cyclic 2^5,8^3-(1H-1,2,3-triazole-1,4-diyl)-cyclic-(3→12)-disulfide] (H-G[Orn(N3)][Gly(αS-SH)]TDPR[Pra][Cit][Tyr(3-I)]QCY-NH2; triazole 2-8; disulfide 3-12) yielded an IC50 (rat α9α10 nAChR) of at least 1000 nM and an IC50 (human α9α10 nAChR) of at least 1000 nM.

`C[C@@H](O)[C@@H]1NC(=O)[C@@H]2CCC(=O)NCCCC[C@@H](C(=O)N[C@@H](Cc3ccc(O)cc3)C(N)=O)NC(=O)[C@H](CCC(N)=O)NC(=O)[C@H](Cc3ccc(O)c(I)c3)NC(=O)[C@H](CCCNC(N)=O)NC(=O)[C@H](CSSC[C@H](NC(=O)CN)C(=O)N2)NC(=O)[C@H](CCCNC(=N)N)NC(=O)[C@@H]2CCCN2C(=O)[C@H](CC(=O)O)NC1=O` [Iw, L-tyrosinamide, glycyl-L-cysteinyl-L-glutamyl-L-threonyl-L-α-aspartyl-L-prolyl-L-arginyl-L-cysteinyl-N5-(aminocarbonyl)-L-ornithyl-L-3-iodotyrosyl-L-glutaminyl-L-lysyl-cyclic (2→8)-disulfide-cyclic-(3→12)-lactam] (H-GCETDPRC[Cit][Tyr(3-I)]QKY-NH2; disulfide 2-8; lactam 3-12) showed an IC50 (rat α9α10 nAChR) of 36 ± 9 nM and an IC50 (human α9α10 nAChR) of over 300 nM.

`C[C@@H](O)[C@@H]1NC(=O)[C@H]2NC(=O)[C@@H](NC(=O)CN)Cc3cn(nn3)CCC[C@H](NC(=O)[C@H](CCCNC(=N)N)NC(=O)[C@@H]3CCCN3C(=O)[C@H](CC(=O)O)NC1=O)C(=O)N[C@@H](CCCNC(N)=O)C(=O)N[C@@H](Cc1ccc(O)c(I)c1)C(=O)N[C@@H](CCC(N)=O)C(=O)N[C@H](C(=O)N[C@@H](Cc1ccc(O)cc1)C(N)=O)CSS2` [Ic, L-tyrosinamide, glycyl-L-alanyl-L-cysteinyl-L-threonyl-L-α-aspartyl-L-prolyl-L-arginyl-L-norvalyl-N5-(aminocarbonyl)-L-ornithyl-L-3-iodotyrosyl-L-glutaminyl-L-cysteinyl-cyclic 2^3,8^5-(1H-1,2,3-triazole-4,1-diyl)-cyclic-(3→12)-disulfide] (H-G[Pra][Gly(αS-SH)]TDPR[Orn(N3)][Cit][Tyr(3-I)]QCY-NH2; triazole 2-8; disulfide 3-12) showed an IC50 (rat α9α10 nAChR) of 69 ± 8.5 nM and an IC50 (human α9α10 nAChR) of 152 ± 71 nM.
